Reference: patent US20180284095A1, “BIOMARKERS ASSOCIATED WITH LSD1 INHIBITORS AND USES THEREOF” (Oryzon Genomics, S.A., priority 2015, published 2018)

Assays:
Type in all cases: in vivo, mouse
S100A8 = experiment: Microarray gene expression in brain, spleen and liver of Hsd:Athymic Nude-Foxn1nu mice (Example 7)
Protocol: (§1) Total RNA was extracted from samples using the RNeasy extraction kit (Qiagen). The quality and concentration of the RNA was analyzed using the Agilent 2100 bioanalyzer and NanoDrop™ ND-1000 (Thermo Scientific). Samples with RNA integrity number (RIN)<6.0 were discarded. Total RNA (0.5 μg) amplification and labelling with Cy3 or Cy5 was carried out using the Eberwein mRNA amplification procedure (Van Gelder et al, Proc Natl Acad Sci USA 1990, 87:1663-1667) employing the MessageAmp™ aRNA amplification kit from Ambion (Applied Biosystems) following the manufacturer's instructions with minor modifications. As hybridization controls, plant mRNAs were transcribed from a plasmid containing the Zea mays Xet (xyloglucan endo-transglycosylase) cDNA and from a plasmid containing the Zea mays Zmmyb42 cDNA, independently prepared Cy3 and Cy5 labelled aRNA from these two RNAs using the Eberwein mRNA amplification procedure (as disclosed in Cerdà et al, Gen Comp Endocrinol 2008, 156:470-481).
(§2) The Cy3- and Cy5-labelled cRNAs and spikes were combined and hybridized to the microarray described in Example 2.6 for 17 h at 60° C. using Agilent's gaskets G2534-60002, G2534A hybridization chambers and DNA Hybridization Oven G2545A, according to the manufacturer's instructions. More specifically, equal amounts of Cy3 and Cy5 labeled Xet aRNA as well as equal amounts of Cy3 and Cy5 labeled Zmmyb42 aRNA were spiked into each mixture hybridized to the array. Arrays were washed and raw data were obtained using Agilent's DNA Microarray Scanner G2505B and Feature Extraction software (v10.1). The raw fluorescence intensity data were processed using applicant's proprietary software, and consists in the following operations:
(§3) Data normalization was carried out by an improved version of the nonlinear Q-splines normalization method (Workman et al., Genome Biol 2002, 3(9):research0048.1-0048.16). Normalization results were presented graphically as MA plots, as first described by Dudoit et al (Dudoit et al, Statistica Sinica, 2002, 12:111-139). Each point corresponds to a probe of the DNA array. M values (vertical axis) are the log-differential expression ratios. A values (horizontal axis) are the log-intensities of the spots. M and A are calculated from the Cy5 and Cy3 intensity values as of each spot. The DNA Array data is normalized using an improved version of non-linear Q-Splines normalization described by Workman et al., Genome Biol 2002, 3(9):research0048.1-0048.16. This process is useful to correct the deviation of the M values from the statistical assumption that most of the spots have M=0 in MA plots. The method allows the adjustment of all M values to form a cloud centered at M=0 in all intensity ranges. The data used to calculate the normalization fitting curve is the totality of the raw measurement dataset, excluding the signals for the probes for the spiked-in plant RNA controls and negative controls. In order to be able to normalize properly the data among all the experiments, the probe-set must include an important group of genes that should have no change (M=0) in the experiment. The normalization function is then applied to all the data, including controls.
(§4) Normalized and log-transformed data were used to calculate log 2 (sample/control) and Fold Change (FC) values. No background subtraction was applied to the signal intensity values during data processing, permitting robust selection of differentially expressed genes with low expression levels at the cost of potential sub-estimation of change when intensity levels are close to the array background level.
(§5) Powered Compound 3, 4 or 5 was dissolved in a 20% solution of 2-hydroxypropyl-R-cyclodextrin in water at the appropriate concentrations, vortexed and placed in an ultrasonic bath for 5 minutes.
(§6) Hsd:Athymic Nude-Foxn1nu mice were maintained in air- and temperature-controlled cages with regular supply of water and food. A maximum of 6 mice/cage were raised. […]

S100A9 = experiment: as above
Protocol: as §1, §2, §3, §4, §5, §6

TUBB2C = experiment: Microarray gene expression in brain, spleen and liver of Hsd:Athymic Nude-Foxn1nu mice (Example 7), housekeeping gene
Protocol: as §1, §2, §3, §4, §5, §6

TUBB3 = experiment: as above
Protocol: as §1, §2, §3, §4, §5, §6

N[C@H]1CCN(CCN[C@H]2C[C@@H]2c2ccc(-c3cccc(C(F)(F)F)c3)cc2)C1 (racemic) [Compound 5, (S)-1-(2-(((trans)-2-(3′-(trifluoromethyl)-[1,1′-biphenyl]-4-yl)cyclopropyl)amino)ethyl)pyrrolidin-3-amine]
Hybridization signal sample_Cy5 (S100A8; BRAIN, S100A8, 3.3 mg/kg): 268.162 | log2 (sample/control) (S100A8; BRAIN, S100A8, 3.3 mg/kg vs VEH): −0.6462 | Hybridization signal sample_Cy5 (S100A8; BRAIN, S100A8, 11 mg/kg): 38.4889 | log2 (sample/control) (S100A8; BRAIN, S100A8, 11 mg/kg vs VEH): −3.263 | Hybridization signal sample_Cy5 (S100A8; BRAIN, S100A8, 33 mg/kg): 36.6941 | log2 (sample/control) (S100A8; BRAIN, S100A8, 33 mg/kg vs VEH): −3.57 | Hybridization signal sample_Cy5 (S100A8; LIVER, S100A8, 3.3 mg/kg): 315.439 | log2 (sample/control) (S100A8; LIVER, S100A8, 3.3 mg/kg vs VEH): −0.4761 | Hybridization signal sample_Cy5 (S100A8; LIVER, S100A8, 11 mg/kg): 73.2915 | log2 (sample/control) (S100A8; LIVER, S100A8, 11 mg/kg vs VEH): −2.357 | Hybridization signal sample_Cy5 (S100A8; LIVER, S100A8, 33 mg/kg): 57.5133 | log2 (sample/control) (S100A8; LIVER, S100A8, 33 mg/kg vs VEH): −2.909 | Hybridization signal sample_Cy5 (S100A8; SPLEEN, S100A8, 3.3 mg/kg): 4802.3 | log2 (sample/control) (S100A8; SPLEEN, S100A8, 3.3 mg/kg vs VEH): −1.65 | Hybridization signal sample_Cy5 (S100A8; SPLEEN, S100A8, 11 mg/kg): 382.984 | log2 (sample/control) (S100A8; SPLEEN, S100A8, 11 mg/kg vs VEH): −5.38 | Hybridization signal sample_Cy5 (S100A8; SPLEEN, S100A8, 33 mg/kg): 408.877 | log2 (sample/control) (S100A8; SPLEEN, S100A8, 33 mg/kg vs VEH): −5.243 | Hybridization signal sample_Cy5 (S100A9; BRAIN, S100A9, 3.3 mg/kg): 746.537 | log2 (sample/control) (S100A9; BRAIN, S100A9, 3.3 mg/kg vs VEH): −0.9635 | Hybridization signal sample_Cy5 (S100A9; BRAIN, S100A9, 11 mg/kg): 60.5479 | log2 (sample/control) (S100A9; BRAIN, S100A9, 11 mg/kg vs VEH): −4.54 | Hybridization signal sample_Cy5 (S100A9; BRAIN, S100A9, 33 mg/kg): 58.3941 | log2 (sample/control) (S100A9; BRAIN, S100A9, 33 mg/kg vs VEH): −4.697 | Hybridization signal sample_Cy5 (S100A9; LIVER, S100A9, 3.3 mg/kg): 987.357 | log2 (sample/control) (S100A9; LIVER, S100A9, 3.3 mg/kg vs VEH): −0.5728 | Hybridization signal sample_Cy5 (S100A9; LIVER, S100A9, 11 mg/kg): 170.929 | log2 (sample/control) (S100A9; LIVER, S100A9, 11 mg/kg vs VEH): −3.056 | Hybridization signal sample_Cy5 (S100A9; LIVER, S100A9, 33 mg/kg): 113.971 | log2 (sample/control) (S100A9; LIVER, S100A9, 33 mg/kg vs VEH): −3.811 | Hybridization signal sample_Cy5 (S100A9; SPLEEN, S100A9, 3.3 mg/kg): 13461.8 | log2 (sample/control) (S100A9; SPLEEN, S100A9, 3.3 mg/kg vs VEH): −1.719 | Hybridization signal sample_Cy5 (S100A9; SPLEEN, S100A9, 11 mg/kg): 963.073 | log2 (sample/control) (S100A9; SPLEEN, S100A9, 11 mg/kg vs VEH): −5.625 | Hybridization signal sample_Cy5 (S100A9; SPLEEN, S100A9, 33 mg/kg): 944.034 | log2 (sample/control) (S100A9; SPLEEN, S100A9, 33 mg/kg vs VEH): −5.685 | Hybridization signal sample_Cy5 (TUBB2C; BRAIN, 3.3 mg/kg): 10642 | log2 (sample/control) (TUBB2C; BRAIN, 3.3 mg/kg vs VEH): −0.01396 | Hybridization signal sample_Cy5 (TUBB2C; BRAIN, 11 mg/kg): 11161.1 | log2 (sample/control) (TUBB2C; BRAIN, 11 mg/kg vs VEH): −0.06127 | Hybridization signal sample_Cy5 (TUBB2C; BRAIN, 33 mg/kg): 12584.1 | log2 (sample/control) (TUBB2C; BRAIN, 33 mg/kg vs VEH): −0.05145 | Hybridization signal sample_Cy5 (TUBB2C; LIVER, 3.3 mg/kg): 3670.67 | log2 (sample/control) (TUBB2C; LIVER, 3.3 mg/kg vs VEH): 0.3692 | Hybridization signal sample_Cy5 (TUBB2C; LIVER, 11 mg/kg): 3985.13 | log2 (sample/control) (TUBB2C; LIVER, 11 mg/kg vs VEH): 0.457 | Hybridization signal sample_Cy5 (TUBB2C; LIVER, 33 mg/kg): 4335.41 | log2 (sample/control) (TUBB2C; LIVER, 33 mg/kg vs VEH): 0.3205 | Hybridization signal sample_Cy5 (TUBB2C; SPLEEN, 3.3 mg/kg): 8986.8 | log2 (sample/control) (TUBB2C; SPLEEN, 3.3 mg/kg vs VEH): −0.9476 | Hybridization signal sample_Cy5 (TUBB2C; SPLEEN, 11 mg/kg): 9222.71 | log2 (sample/control) (TUBB2C; SPLEEN, 11 mg/kg vs VEH): −0.8739 | Hybridization signal sample_Cy5 (TUBB2C; SPLEEN, 33 mg/kg): 6535.64 | log2 (sample/control) (TUBB2C; SPLEEN, 33 mg/kg vs VEH): −1.41 | Hybridization signal sample_Cy5 (TUBB3; BRAIN, TUBB3, 3.3 mg/kg): 4740.83 | log2 (sample/control) (TUBB3; BRAIN, TUBB3, 3.3 mg/kg vs VEH): −0.05126 | Hybridization signal sample_Cy5 (TUBB3; BRAIN, TUBB3, 11 mg/kg): 6217.25 | log2 (sample/control) (TUBB3; BRAIN, TUBB3, 11 mg/kg vs VEH): −0.02834 | Hybridization signal sample_Cy5 (TUBB3; BRAIN, TUBB3, 33 mg/kg): 5722.06 | log2 (sample/control) (TUBB3; BRAIN, TUBB3, 33 mg/kg vs VEH): 0.1073 | Hybridization signal sample_Cy5 (TUBB3; LIVER, TUBB3, 3.3 mg/kg): 49.0459 | log2 (sample/control) (TUBB3; LIVER, TUBB3, 3.3 mg/kg vs VEH): −0.4483 | Hybridization signal sample_Cy5 (TUBB3; LIVER, TUBB3, 11 mg/kg): 43.197 | log2 (sample/control) (TUBB3; LIVER, TUBB3, 11 mg/kg vs VEH): −0.6411 | Hybridization signal sample_Cy5 (TUBB3; LIVER, TUBB3, 33 mg/kg): 52.03 | log2 (sample/control) (TUBB3; LIVER, TUBB3, 33 mg/kg vs VEH): −0.4211 | Hybridization signal sample_Cy5 (TUBB3; SPLEEN, TUBB3, 3.3 mg/kg): 88.3418 | log2 (sample/control) (TUBB3; SPLEEN, TUBB3, 3.3 mg/kg vs VEH): 0.169 | Hybridization signal sample_Cy5 (TUBB3; SPLEEN, TUBB3, 11 mg/kg): 229.738 | log2 (sample/control) (TUBB3; SPLEEN, TUBB3, 11 mg/kg vs VEH): 1.521 | Hybridization signal sample_Cy5 (TUBB3; SPLEEN, TUBB3, 33 mg/kg): 167.826 | log2 (sample/control) (TUBB3; SPLEEN, TUBB3, 33 mg/kg vs VEH): 1.398
